Data: article PMC8669712, “G Protein-Coupled Receptor GPR35 Suppresses Lipid Accumulation in Hepatocytes” (ACS Pharmacology & Translational Science, 2021)
Where “and” joins values, the source holds several entries; their conditions need not be identical. Identical values can stand only once. Like-named read-outs stand apart in the source and are kept apart here. *1 amine or outer side, *2 acyl side, *3 side chain or, on linkers, in order; H or OH if unused. Where a SMILES comes first, the peptide text is derived from it. Bridges are numbered along the chain shown (N, C = ends). [ ]: non-standard residue; d: D form. The star is where a group is joined. Leu(3R-OH,Nα-propionyl) = CCC(=O)N[C@H](C(=O)*)[C@H](O)C(C)C; X1 = CC(C)[C@@H](O[*:3])[C@H](N[*:1])C(=O)[*:2]; NMeT = CN[C@H](C(=O)O)[C@@H](C)O; dPhLac = O=C(O)[C@H](O)Cc1ccccc1; NMeA = CN[C@@H](C)C(=O)O; NMeDha = C=C(NC)C(=O)O

How the values were obtained:
[1] = test system: GPR35 genome-edited HepG2 clones; assay: Label-free cellular impedance assay in GPR35 genome-edited HepG2 clones 19 and 27; format: cell-based, human
Text: Expression of full-length mRNA from the GPR35 gene was eliminated using a dual synthetic gRNA/RNP approach[43] with one guide cutting the intron and one in the exon region to generate a nonfunctional GPR35 protein. The gRNAs were designed with the CRISPR Finder (Welcome Sanger Institute). HepG2 cells were transfected with the Neon Transfection System from Thermo Fisher Scientific (Waltham, MA), according to the manufacturer’s instructions. Briefly, CrRNA and tracrRNA were annealed to gRNA at 95 °C for 5 min. Next, cells were transfected with gRNA, Cas9, and the electroporation enhancer, according to the manufacturer’s instructions. All crRNAs, tracrRNA, SpCas9 nuclease, and the electroporation enhancer were purchased from Integrated DNA Technologies (Coralville, IA). Transfected cells were plated and analyzed for editing efficiency 24–48 h after electroporation. Single-cell clones were generated by single-cell FACS sorting. Clones were expanded and to access editing efficiency, genomic DNA from cell clones was extracted and subjected to PCR to confirm the genome deletion. To further quantify and capture the genomic DNA deletion, PCR primers listed in Table S1 were designed to amplify the genomic DNA surrounding the target site. The PCR primers were linked to the sequences of the Illumina Nextera adapters. The amplified PCR products were subjected to paired-end sequencing using NextSeq500 from Illumina using paired-end chemistry with a 150-bp read length. In addition, mRNA from KO clones was isolated and subjected to RT-PCR. To further confirm the abrogation of GPR35 activation in CRISPR KO clones, KO cells were seeded onto xCELLigence E plates (2 × 10^4 cells/well) for 24 h at 37 °C prior to the treatment of GPR35 agonists. The impedance was recorded using xCELLigence RTCA. […]
HepG2 cells were seeded onto xCELLigence E plates (2 × 10^4 cells/well) and incubated for 24 h at 37 °C. […] After the addition of GPR35 agonist or vehicle control, the impedance (represented as “cell index”) was recorded every 30 s over a 2 h period using xCELLigence RTCA (Agilent). […]

HepG2 cells [2] = assay: Label-free cellular impedance assay (xCELLigence) in HepG2 cells; format: cell-based, human; settings: for effect of signaling pathway inhibitor pretreatment on the impedance response to lodoxamide: HepG2 cells, FR900359 1 × 10^–7 M, Pertussis toxin 100 ng/mL, Y27632 1 × 10^–5 M
Protocol: HepG2 cells were seeded onto xCELLigence E plates (2 × 10^4 cells/well) and incubated for 24 h at 37 °C. To evaluate GPR35 activation and its downstream G protein signaling, HepG2 cells or primary mouse hepatocytes were exposed to GPR35 antagonists or G protein inhibitors 1 h (overnight for Pertussis toxin) prior to GPR35 agonist stimulation. After the addition of GPR35 agonist or vehicle control, the impedance (represented as “cell index”) was recorded every 30 s over a 2 h period using xCELLigence RTCA (Agilent). Each experiment was repeated at least three times.

HepG2 cells [3] = assay: Oil Red O staining of LXR (T0901317)-induced lipid accumulation in HepG2 cells; format: cell-based, human; settings: 4 × 10^–6 M, 48 h
Protocol: Human hepatocellular carcinoma HepG2 cells were grown in Minimum Essential Medium (MEM) supplemented with 10% fetal bovine serum (FBS), 2 mM L-glutamine, 1× non-essential amino acid, 1 mM sodium pyruvate, and 1× penicillin/streptomycin. Materials for cell culture were all from Sigma-Aldrich (St. Louis, MO) or Thermo Fisher Scientific (Waltham, MA). Cells were incubated in a humidified CO2 incubator at 37 °C. […] Cells were seeded onto a 12-well plate (1 × 10^5 cells/well) for 24 h prior to drug treatment. […] Lipid accumulation was measured by Oil Red O staining.

[4] = test system: hepatocytes from hGPR35a-HA-expressing mice; assay: Oil Red O lipid accumulation in hepatocytes from hGPR35a-HA-expressing mice; format: cell-based, mouse; settings: T0901317 8 × 10^–6 M
Protocol: (§1) All mice were bred as WT or homozygous onto a C57BL/6N background. Animals were cared for in accordance with national guidelines on animal experimentation. All animal experiments were conducted under a home office license held by the authors. WT, humanized GPR35a, or KO male mice at 3–4 months of age were used in this study. These mice were fed ad libitum with a standard mouse chow diet. Briefly, mouse primary hepatocytes were isolated using a two-step collagenase perfusion technique.[45] Twelve-well plates or xCELLigence E plates were coated with rat tail collagen I solution (Thermo Fisher Scientific) overnight at 37 °C and washed with PBS. Isolated primary hepatocytes were seeded onto 12-well plates (8 × 10^4 cells/well) or xCELLigence E plates (2 × 10^4 cells/well) in Wiliam’s E medium (Thermo Fisher Scientific) supplemented with 10% fetal bovine serum (FBS) and 1× penicillin/streptomycin. Cells were maintained for 7 days with a fresh medium change every other day. […] Human GPR35 activation was examined using xCELLigence RTCA assay. To access the impact of GPR35 agonists on the lipid accumulation, WT and humanized GPR35 hepatocytes were incubated with T0901317 and/or GPR35 agonists/antagonists, as indicated (in DMEM medium containing 5% FBS and 1.5% BSA) for 48 h. Alternatively, GPR35 KO hepatocytes were incubated with drugs, as indicated for 5 days. In the T0901317 pretreatment model, human GPR35 hepatocytes were stimulated with T0901317 for 2 days and then further treated with lodoxamide for a further 3 days. After each drug treatment, hepatocytes were stained with Oil Red O and quantified as described. Each experiment was repeated at least three times.
Lipid accumulation was measured by Oil Red O staining. A working solution of Oil Red O was prepared, as described with modification.[46] After drug treatment, cells were washed with PBS and fixed with formalin solution for 1 h at 4 °C. Then, cells were stained with Oil Red O working solution for 10 min at room temperature. After PBS washing, Oil Red O was extracted from cells using 150 μl of isopropanol and OD510 nm measured. After the lipid extraction, cells were further soaked in PBS overnight at 4 °C. These cells were then stained with Hoechst 33342 (1 μg/mL) and the fluorescence intensity of Hoechst (represents the DNA content in cells) was measured using a CLARIOstar plate reader (BMG LABTECH). Oil Red O accumulation was corrected for differences in DNA content and expressed as relative absorbency, taking the control condition (treated with vehicle only) as 1.

[5] = test system: GPR35 knock-out clones of HepG2 cells; assay: Oil Red O lipid accumulation in GPR35 knock-out clones of HepG2 cells; format: cell-based, human; settings: T0901317 4 × 10^–6 M, 48 h, higher baseline
Protocol: Human hepatocellular carcinoma HepG2 cells were grown in Minimum Essential Medium (MEM) supplemented with 10% fetal bovine serum (FBS), 2 mM L-glutamine, 1× non-essential amino acid, 1 mM sodium pyruvate, and 1× penicillin/streptomycin. Materials for cell culture were all from Sigma-Aldrich (St. Louis, MO) or Thermo Fisher Scientific (Waltham, MA). Cells were incubated in a humidified CO2 incubator at 37 °C. Experiments were performed when cell confluence reached 80%. Cells were seeded onto a 12-well plate (1 × 10^5 cells/well) for 24 h prior to drug treatment. […] Expression of full-length mRNA from the GPR35 gene was eliminated using a dual synthetic gRNA/RNP approach[43] with one guide cutting the intron and one in the exon region to generate a nonfunctional GPR35 protein. The gRNAs were designed with the CRISPR Finder (Welcome Sanger Institute). […] Transfected cells were plated and analyzed for editing efficiency 24-48 h after electroporation. […] To further quantify and capture the genomic DNA deletion, PCR primers listed in Table S1 were designed to amplify the genomic DNA surrounding the target site. […] The amplified PCR products were subjected to paired-end sequencing using NextSeq500 from Illumina using paired-end chemistry with a 150-bp read length. […] The impedance was recorded using xCELLigence RTCA. […] Lipid accumulation was measured by Oil Red O staining.

[6] = test system: hepatocytes from GPR35 knock-out mice; assay: Oil Red O lipid accumulation in hepatocytes from GPR35 knock-out mice
Protocol: All mice were bred as WT or homozygous onto a C57BL/6N background. Animals were cared for in accordance with national guidelines on animal experimentation. All animal experiments were conducted under a home office license held by the authors. WT, humanized GPR35a, or KO male mice at 3–4 months of age were used in this study. These mice were fed ad libitum with a standard mouse chow diet. Briefly, mouse primary hepatocytes were isolated using a two-step collagenase perfusion technique.[45] Twelve-well plates or xCELLigence E plates were coated with rat tail collagen I solution (Thermo Fisher Scientific) overnight at 37 °C and washed with PBS. […] After each drug treatment, hepatocytes were stained with Oil Red O and quantified as described. […]
(§2) Lipid accumulation was measured by Oil Red O staining. […] After PBS washing, Oil Red O was extracted from cells using 150 μl of isopropanol and OD510 nm measured. […] These cells were then stained with Hoechst 33342 (1 μg/mL) and the fluorescence intensity of Hoechst (represents the DNA content in cells) was measured using a CLARIOstar plate reader (BMG LABTECH). Oil Red O accumulation was corrected for differences in DNA content and expressed as relative absorbency, taking the control condition (treated with vehicle only) as 1.

[7] = test system: hepatocytes from wild-type mice; assay: Oil Red O lipid accumulation in hepatocytes from wild-type mice; format: cell-based, mouse; settings: 48 h; for EC50: hepatocytes from wild-type mice, co-incubation with T0901317 5 × 10^–6 M, read-out: EC50 for suppression of LXR-mediated lipid accumulation
Protocol: as §1, with “In the T0901317 pretreatment model, human GPR35 hepatocytes were stimulated with T0901317 for 2 days and then further treated with lodoxamide for a further 3 days.” left out, “Each experiment was repeated at least three times.” left out
as §2

human GPR35a = human GPR35a (Homo sapiens, UniProt Q9HC97); assay: β-arrestin-based interaction assay, agonist potency at human GPR35a; format: cell-based
Sequence of human GPR35a (Q9HC97 whole entry): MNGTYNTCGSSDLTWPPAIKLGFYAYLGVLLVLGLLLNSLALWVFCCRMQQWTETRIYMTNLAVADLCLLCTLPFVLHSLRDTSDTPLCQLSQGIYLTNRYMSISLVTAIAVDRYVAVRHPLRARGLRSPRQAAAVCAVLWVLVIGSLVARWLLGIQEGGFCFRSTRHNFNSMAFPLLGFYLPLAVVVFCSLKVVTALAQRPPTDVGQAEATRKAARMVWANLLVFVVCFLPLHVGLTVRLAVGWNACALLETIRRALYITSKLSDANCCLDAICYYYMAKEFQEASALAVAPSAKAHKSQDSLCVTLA

mouse GPR35 = mouse GPR35 (Mus musculus, UniProt Q9ES90); assay: β-arrestin-based interaction assay, agonist potency at mouse GPR35; format: cell-based
Sequence of mouse GPR35 (Q9ES90 whole entry): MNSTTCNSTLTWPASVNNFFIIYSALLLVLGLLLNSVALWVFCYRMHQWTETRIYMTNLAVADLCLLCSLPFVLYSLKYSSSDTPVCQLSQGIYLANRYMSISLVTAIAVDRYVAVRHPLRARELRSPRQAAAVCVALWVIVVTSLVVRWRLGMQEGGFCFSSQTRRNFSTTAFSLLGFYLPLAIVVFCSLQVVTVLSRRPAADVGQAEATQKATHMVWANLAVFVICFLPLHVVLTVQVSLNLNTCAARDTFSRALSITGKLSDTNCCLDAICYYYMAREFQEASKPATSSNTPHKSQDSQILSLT

Nc1ncnc2c1ncn2[C@@H]1O[C@H](COP(=O)(O)OP(=O)(O)OP(=O)(O)O)[C@@H](O)[C@H]1O [ATP]
impedance response to ATP in wild-type HepG2 cells and GPR35 genome-edited clones ([1]; P2Y purinoceptor stimulus, control of responsiveness): enhanced electrical conductance

C=C1C(=O)N[C@@H](C)C(=O)N(C)[C@@H](C)C(=O)N[C@@H]([C@H](OC(=O)[C@@H](NC(=O)CC)[C@H](O)C(C)C)C(C)C)C(=O)N(C)[C@@H]([C@@H](C)OC)C(=O)O[C@H](C(C)C)[C@H](NC(C)=O)C(=O)O[C@H](Cc2ccccc2)C(=O)N1C [FR900359] (Ac-[X1][dPhLac][NMeDha]A[NMeA][X1](Leu(3R-OH,Nα-propionyl))[NMeT](Me); ester 1-C)
effect of signaling pathway inhibitor pretreatment on the impedance response to lodoxamide (HepG2 cells [2]): without effect

O=S(=O)(c1ccccc1)N(CC(F)(F)F)c1ccc(C(O)(C(F)(F)F)C(F)(F)F)cc1 [T0901317, N-(2,2,2-trifluoroethyl)-N-[4-[2,2,2-trifluoro-1-hydroxy-1-(trifluoromethyl)ethyl]phenyl]benzenesulfonamide]
deposition of triglycerides and other lipids (Oil Red O) (HepG2 cells [3]): substantially increased
lipid accumulation (Oil Red O) in hepatocytes from hGPR35a-HA-expressing mice [4]: clear increase in lipid accumulation
lipid accumulation on LXR activation in GPR35 knock-out clones [5]: still able to promote lipid accumulation
effect of T0901317 on lipid accumulation in hepatocytes from GPR35 knock-out mice ([6]; equivalent time of exposure as in wild-type hepatocytes (48 h)): modest
lipid accumulation in mouse hepatocytes ([7]; wild-type mice, 5 × 10^–6 M): able to promote lipid accumulation

C[C@@H](N)[C@H]1CC[C@H](C(=O)Nc2ccncc2)CC1 [Y27632]
effect of signaling pathway inhibitor pretreatment on the impedance response to lodoxamide (HepG2 cells [2]): all but eliminated

CCCCc1cc2c(=O)cc(C(=O)O)[nH]c2c2c(=O)cc(C(=O)O)[nH]c12 [bufrolin, 6-butyl-4,10-dioxo-1,7-dihydro-1,7-phenanthroline-2,8-dicarboxylic acid]
ratio (log) (H/M) (human GPR35a; log ratio of potency at human GPR35a over mouse GPR35): 1.02 ± 0.06
EC50 (human GPR35a; β-arrestin-based interaction assay, read-out: human GPR35a, pEC50 (converted)): 14.8 nM
suppression of lipid accumulation induced by T0901317 in hepatocytes from GPR35 knock-out mice ([6]; treatment for 5 days): did not suppress lipid accumulation
fold more potent than lodoxamide at mouse GPR35 (mouse GPR35; bufrolin versus lodoxamide): more than 10 fold
fold lower potency at mouse GPR35 than at human GPR35 (mouse GPR35; mouse versus human GPR35): ~10 fold
EC50 (mouse GPR35; read-out: EC50 at the mouse GPR35): < 100 nM
EC50 (mouse GPR35; β-arrestin-based interaction assay, read-out: mouse GPR35, pEC50 (converted)): 155 nM
EC50 ([7]; Mus musculus, Hepatocyte): 78.7 nM
EC50 [7]: 79 nM and ~80 nM

CCCOc1ccccc1-c1nc2nn[nH]c2c(=O)[nH]1 [zaprinast]
impedance signal in GPR35 genome-edited clones 19 and 27 ([1]; 1 × 10^–5 M): not in either clone 19 or 27
impedance signal in parental HepG2 cells (HepG2 cells [2]; 1 × 10^–5 M): produced positive signals
EC50 (mouse GPR35): 661 nM

Pertussis toxin
effect of signaling pathway inhibitor pretreatment on the impedance response to lodoxamide (HepG2 cells [2]): small although a statistically nonsignificant reduction
